The record followed here is patent US20050209278A1, “Piperidinyl- and piperazinyl-sulfonylmethyl hydroxamic acids and their use as protease inhibitors” (priority 2002, published 2005).

One test addresses T1, MMP-9 (Homo sapiens, UniProt P14780).
T1 construct: made in house; host or cells: MMP-9-transfected HT1080 cells (spent media)
Briefly: In vitro MMP inhibition, Ki determination (fluorogenic substrate II). Type of test: biochemical. To be noted: value outside parentheses. Put shortly: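 HT1080-derived MMP-9, activated with APMA, trypsin or MMP-3, incubated 1 hr at room temperature with inhibitor and 4 μM fluorogenic substrate II (at or below Km) in pH 7.5 Tris/NaCl/CaCl2 buffer; ex 330/em 420 nm. Ki from Morrison-equation regression, without substrate correction.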

Another test concerns the target T2, MMP-14 (Homo sapiens, UniProt P50281).
T2 construct: The catalytic domain enzyme was expressed in E. coli inclusion bodies, solubilized in urea; made in house
The description is as above. The format is biochemical. The conditions noted are these: value outside parentheses; read-out: MMP-14 Ki. Put shortly: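 Apparent Ki was fitted with Morrison's equation from reaction rates at a single low enzyme level. Enzyme was APMA- or trypsin-activated refolded MMP-14 catalytic domain, buffered at pH 7.5 with 10 mM CaCl2.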

T1 sequence (P14780 107-707 limits assumed): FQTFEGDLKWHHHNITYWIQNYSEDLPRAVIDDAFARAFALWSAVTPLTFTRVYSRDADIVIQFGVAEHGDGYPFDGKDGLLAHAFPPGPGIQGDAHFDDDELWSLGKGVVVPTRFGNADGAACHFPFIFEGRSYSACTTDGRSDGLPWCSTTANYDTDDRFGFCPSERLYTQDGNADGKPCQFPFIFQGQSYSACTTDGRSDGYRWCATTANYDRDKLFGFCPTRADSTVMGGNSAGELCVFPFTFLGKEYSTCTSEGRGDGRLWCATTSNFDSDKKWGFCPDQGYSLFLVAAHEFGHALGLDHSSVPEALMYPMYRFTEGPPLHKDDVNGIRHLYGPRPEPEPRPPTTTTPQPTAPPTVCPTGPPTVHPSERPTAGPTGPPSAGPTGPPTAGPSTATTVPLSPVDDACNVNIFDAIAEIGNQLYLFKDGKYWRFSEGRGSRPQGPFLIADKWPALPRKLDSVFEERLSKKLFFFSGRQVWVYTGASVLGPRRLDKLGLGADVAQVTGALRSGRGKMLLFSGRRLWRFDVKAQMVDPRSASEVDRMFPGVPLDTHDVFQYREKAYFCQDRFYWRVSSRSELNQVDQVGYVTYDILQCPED

With `COc1ccc(-c2cnc(N3CCN(S(=O)(=O)C4(C(=O)NO)CCOCC4)CC3)s2)cc1OC` [Example 371], the values for the inhibition constant Ki at MMP-9 and on MMP-14 were 6.5 nM and 1590 nM, respectively.

As for `O=C(NO)C1(S(=O)(=O)N2CCC(c3ccc(CCC(F)(F)F)cn3)CC2)CCOCC1` [Example 367], the Ki (commonly the dissociation constant of the complex between target and ligand, obtained from inhibition or displacement) at MMP-9 came out at 0.625 nM; at MMP-14, 3290 nM.

With `O=C(NO)C1(S(=O)(=O)N2CCN(c3cnn(-c4ccccc4)c(=O)c3Cl)CC2)CCOCC1` [Example 329], the Ki on MMP-9 and at MMP-14 was > 10000 nM throughout.

In the case of `CCCCOc1cccc(N2CCN(S(=O)(=O)C3(C(=O)NO)CCOCC3)CC2)c1` [Example 354], the Ki turned out to be 786 nM on MMP-9 and 4140 nM on MMP-14.

Turning to `O=C(NO)C1(S(=O)(=O)N2CCN(c3ccc(OCC(F)(F)C(F)F)cc3)CC2)CCOCC1` [Example 336], the Ki is 1.38 nM on MMP-9 and 2520 nM on MMP-14.

On to `O=C(NO)C1(S(=O)(=O)N2CCN(c3ccc(OCC(F)(F)C(F)F)cc3)CC2)CCOCC1` [Example 326], for which the Ki at MMP-9 is 2.03 nM; on MMP-14 it was 2430 nM.
